Laboratory results from patent US20240245711A1, “A 19-NOR C3,3-DISUBSTITUTED C21-N-PYRAZOLYL STEROID FOR THE TREATMENT OF MAJOR DEPRESSIVE DISORDER” (Sage Therapeutics, Inc., priority 2021, published 2024).
Where “and” joins values, the source holds several entries; their conditions need not be identical. Equal values may be shown once.

Test system: adult subjects with Major Depressive Disorder
Experiment: Phase 3 open-label 1-year study: HAM-D total score, response and remission
Type: in vivo, human
Settings: for HAM-D Total Score, Mean Percent Change from Period-Specific Baseline / HAM-D Total Score, Mean Change from Period-Specific Baseline: Low Dose Cohort (FAS); for HAM-D Remission / HAM-D Response / HAM-D total score, Mean % CFB ± SD / HAM-D total score, Mean CFB ± SD: Study Period 1, safety set, 30 mg Cohort (N = 725)
Excerpt: Secondary Objective: To assess the need for re-treatment with Compound (1) following initial treatment in adults with MDD currently experiencing an MDE over a 1-year period, and to assess the response of initial treatment and re-treatment(s) with Compound (1) following an initial 2-week treatment period in adults with MDD currently experiencing an MDE over a 1-year period.
Secondary Endpoints: The need for re-treatment with Compound (1) as assessed by: time to first re-treatment (Kaplan-Meier curves), number of subjects achieving the requirements for re-treatment, number of re-treatment cycles for each subject, the response of initial treatment and/or re-treatment as assessed by: change from baseline in the 17-item Hamilton Rating Scale for Depression (HAM-D) total score at the end of each 14-day treatment (initial and/or re-treatment) period, HAM-D response at the end of each 14-day treatment (initial and/or re-treatment) period, defined as a ≥50% reduction in HAM-D score from baseline, HAM-D remission at the end of each 14-day treatment (initial and/or re-treatment) period, defined as HAM-D total score≤7, Clinical Global Impression-Improvement (CGI-I) response, defined as “much improved” or “very much improved”, at the end of each 14-day treatment (initial and/or re-treatment) period, change from baseline in Clinical Global Impression-Severity (CGI-S) score at the end of each 14-day treatment (initial and/or re-treatment) period.
Study Population: Subjects were 18-75 years old, diagnosed with major depressive disorder (MDD) with a MADRS total score of ≥28 and a HAM-D total score of ≥20 at Screening and Day 1 (prior to dosing).
Treatment Groups: The 30 mg and 50 mg dose groups were separated by time of enrollment. The study is comprised of two cohorts: one with Compound (1) 30 mg as a starting dose (30 mg Cohort: n=725), an initial cohort with Compound (1) 50 mg as a starting dose (50 mg Cohort: n=199). A patient receiving Compound (1) 30 mg could be dose reduced to 20 mg and patients receiving Compound (1) 50 mg could be dose reduced to 40 mg (based on tolerability). In all cohorts, Compound (1) is self-administered by patients as an oral therapy once nightly with food for 14 days.
Eligible subjects were given Compound (1)—to be taken at home in the evening with meal.
The cohorts pertaining to the different doses that the subjects received were defined as following: • 50 mg cohort: This cohort includes subjects who have initiated treatment with 50 mg and received re-treatment with 50 mg only. • 30 mg cohort: This cohort includes subjects who have initiated treatment with 30 mg regardless of the dose they have received in re-treatments. • Low dose cohort: This cohort includes subjects who have initiated treatment with 30 mg and received re-treatment with 30 mg only. • Dose switch cohort: This cohort includes subjects who have received initial treatment with 30 mg and at least one subsequent re-treatment with 50 mg. • Study Period X: starts on the date of the first dose of Compound (1) in cycle X and goes up to one day prior to the first dose of the next cycle. In some embodiments, X is any number from 1 to 5. • Treatment Period X: starts on the date of the first dose of Compound (1) in cycle X and goes up to one day after the last dose in cycle X. In some embodiments, X is any number from 1 to 5. • Treatment Cycle X: starts on the date of the first dose of Compound (1) in cycle X and goes up to 14 days after the last dose in cycle X. The treatment cycles may be denoted as C1-C5. • Observation period X: starts the day after Treatment Cycle X ends and goes up to one day prior to the start of next treatment cycle. In some embodiments, X is any number from 1 to 5.
Analysis Sets: The safety set was defined as all subjects who were administered study drug. The period-specific safety set includes subjects in the safety set who were administered study drug in the corresponding treatment cycle. […]

[1] = subjects dosed in Cycle 4 (43), Cycle 1, Day 28
[2] = subjects dosed in Cycle 4 (43), Cycle 2, Day 15
[3] = subjects dosed in Cycle 4 (43), Cycle 2, Day 28
[4] = subjects dosed in Cycle 4 (43), Cycle 3, Day 15
[5] = subjects dosed in Cycle 4 (43), Cycle 3, Day 28
[6] = subjects dosed in Cycle 4 (43), Cycle 4, Day 15
[7] = subjects dosed in Cycle 4 (43), Cycle 4, Day 28
[8] = subjects dosed in Cycle 5 (20), Cycle 1, Day 15
[9] = subjects dosed in Cycle 5 (20), Cycle 1, Day 28
[10] = subjects dosed in Cycle 5 (20), Cycle 2, Day 15
[11] = subjects dosed in Cycle 5 (20), Cycle 2, Day 28
[12] = subjects dosed in Cycle 5 (20), Cycle 3, Day 15
[13] = subjects dosed in Cycle 5 (20), Cycle 3, Day 28
[14] = subjects dosed in Cycle 5 (20), Cycle 4, Day 15
[15] = subjects dosed in Cycle 5 (20), Cycle 4, Day 28
[16] = subjects dosed in Cycle 5 (20), Cycle 5, Day 28

C[C@@]1(O)CC[C@H]2[C@H](CC[C@@H]3[C@@H]2CC[C@]2(C)[C@@H](C(=O)Cn4cc(C#N)cn4)CC[C@@H]32)C1 [Compound (1), 1-(2-((3R,5R,8R,9R,10S,13S,14S,17S)-3-hydroxy-3,13-dimethylhexadecahydro-1H-cyclopenta[a]phenanthren-17-yl)-2-oxoethyl)-1H-pyrazole-4-carbonitrile]
HAM-D Total Score, Mean Percent Change from Period-Specific Baseline (subjects dosed in Cycle 4 (43), Cycle 1, Day 15): −68.2
HAM-D Total Score, Mean Change from Period-Specific Baseline [1]: −13.0
HAM-D Total Score, Mean Percent Change from Period-Specific Baseline [1]: −52.0
HAM-D Total Score, Mean Change from Period-Specific Baseline [2]: −12.1
HAM-D Total Score, Mean Percent Change from Period-Specific Baseline [2]: −49.6
HAM-D Total Score, Mean Change from Period-Specific Baseline [3]: −10.4
HAM-D Total Score, Mean Percent Change from Period-Specific Baseline [3]: −42.4
HAM-D Total Score, Mean Change from Period-Specific Baseline [4]: −12.7
HAM-D Total Score, Mean Percent Change from Period-Specific Baseline [4]: −54.1
HAM-D Total Score, Mean Change from Period-Specific Baseline [5]: −11.1
HAM-D Total Score, Mean Percent Change from Period-Specific Baseline [5]: −46.9
HAM-D Total Score, Mean Change from Period-Specific Baseline [6]: −11.7
HAM-D Total Score, Mean Percent Change from Period-Specific Baseline [6]: −50.0
HAM-D Total Score, Mean Change from Period-Specific Baseline [7]: −9.9
HAM-D Total Score, Mean Percent Change from Period-Specific Baseline [7]: −41.9
HAM-D Total Score, Mean Change from Period-Specific Baseline [8]: −16.5
HAM-D Total Score, Mean Percent Change from Period-Specific Baseline [8]: −66.9
HAM-D Total Score, Mean Change from Period-Specific Baseline [9]: −11.3
HAM-D Total Score, Mean Percent Change from Period-Specific Baseline [9]: −45.7
HAM-D Total Score, Mean Change from Period-Specific Baseline [10]: −11.1
HAM-D Total Score, Mean Percent Change from Period-Specific Baseline [10]: −45.1
HAM-D Total Score, Mean Change from Period-Specific Baseline [11]: −9.2
HAM-D Total Score, Mean Percent Change from Period-Specific Baseline [11]: −37.8
HAM-D Total Score, Mean Change from Period-Specific Baseline [12]: −11.9
HAM-D Total Score, Mean Percent Change from Period-Specific Baseline [12]: −51.5
HAM-D Total Score, Mean Change from Period-Specific Baseline [13]: −10.7
HAM-D Total Score, Mean Percent Change from Period-Specific Baseline [13]: −46.1
HAM-D Total Score, Mean Change from Period-Specific Baseline [14]: −11.6
HAM-D Total Score, Mean Percent Change from Period-Specific Baseline [14]: −48.9
HAM-D Total Score, Mean Change from Period-Specific Baseline [15]: −7.7
HAM-D Total Score, Mean Percent Change from Period-Specific Baseline [15]: −32.6
HAM-D Total Score, Mean Change from Period-Specific Baseline (subjects dosed in Cycle 5 (20), Cycle 5, Day 15): 17, −11.6/—
HAM-D Total Score, Mean Change from Period-Specific Baseline [16]: −7.1
HAM-D Total Score, Mean Percent Change from Period-Specific Baseline [16]: −30.6
Withdrawn in Treatment Cycle 1: Exit for non-response, n (%) (Low Dose Cohort (n = 645)): 146 (22.6%)
HAM-D Remission (Day 8): (17.8%)
HAM-D Response (Day 8): 295/704 (41.9%)
HAM-D total score, Mean % CFB ± SD (Day 8): −42.9 ± 25.68%
HAM-D total score, Mean CFB ± SD (Day 8): −10.9 ± 6.75
HAM-D total score, Mean % CFB ± SD (Day 15): −60.0 ± 25.61%
HAM-D total score, Mean CFB ± SD (Day 15): −15.2±7.1 and −15.2 ± 7.07
HAM-D Remission (Day 28): (32.6%)
HAM-D Response (Day 28): 372/681 (54.6%)
HAM-D total score, Mean % CFB ± SD (Day 28): −51.9 ± 29.96%
HAM-D total score, Mean CFB ± SD (Day 28): −13.3 ± 8.07
HAM-D Remission (Day 70): (30.0%)
HAM-D Response (Day 70): 193/384 (50.3%)
HAM-D total score, Mean % CFB ± SD (Day 70): −46.6 ± 34.25%
HAM-D total score, Mean CFB ± SD (Day 70): −12.1 ± 9.12
HAM-D Remission (Day 126): (47.3%)
